A value given as a limit tells only on which side of the number the result lay.

One data set deals with T1, Cytochrome P450 2B6 (Homo sapiens, UniProt P20813).
T1 sequence (P20813 whole entry): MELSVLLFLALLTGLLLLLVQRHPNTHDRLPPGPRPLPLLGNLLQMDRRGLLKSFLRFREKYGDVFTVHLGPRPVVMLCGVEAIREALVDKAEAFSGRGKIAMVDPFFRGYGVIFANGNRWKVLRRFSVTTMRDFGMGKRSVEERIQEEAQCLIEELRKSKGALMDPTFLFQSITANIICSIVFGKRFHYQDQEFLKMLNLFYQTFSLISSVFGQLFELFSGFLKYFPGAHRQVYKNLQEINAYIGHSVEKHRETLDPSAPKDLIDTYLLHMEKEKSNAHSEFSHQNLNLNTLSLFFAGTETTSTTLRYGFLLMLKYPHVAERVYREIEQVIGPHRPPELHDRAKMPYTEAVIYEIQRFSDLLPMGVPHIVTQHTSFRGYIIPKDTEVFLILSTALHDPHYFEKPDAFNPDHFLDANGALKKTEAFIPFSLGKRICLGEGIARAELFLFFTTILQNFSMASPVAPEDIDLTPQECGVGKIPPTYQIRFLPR
The data set is described as follows: Inhibition of human recombinant CYP2B6 expressed in baculovirus-infected insect microsomes. The data set is classed as ADME, Microsome.

The nature of data set [1]: Terminal half life in Wistar rat at 25 mg/kg, po. The data set is classed as ADME, organism-based. On the set-up: dose 25 mg/kg, route oral. The following applies: in vivo, read-out: beta t1/2 (converted).
The nature of data set [2]: Tmax in Wistar rat at 25 mg/kg, po. The data set is classed as ADME, organism-based. On the set-up: dose 25 mg/kg, route oral. The following applies: in vivo.
Data set [3] can be described thus: Cmax in Wistar rat at 25 mg/kg, po. It is filed as ADME, organism-based. On the set-up: dose 25 mg/kg, route oral. The conditions noted are these: in vivo.
Data set [4] can be described thus: AUC (0 to infinity) in Wistar rat at 25 mg/kg, po. It is filed as ADME, organism-based. On the set-up: time infinity, dose 25 mg/kg, route oral. The following applies: plasma.
The subject of data set [5] is Rattus norvegicus. Kind of data set: Plasma concentration in Wistar rat at 25 mg/kg, po after 0.5 to 8 hrs. The conditions noted are these: in vivo. The arrangement: dose 25 mg/kg, route oral. It is filed as ADME, organism-based.
For data set [6], the target named is T2, Cytochrome P450 11B1, mitochondrial (Homo sapiens, UniProt P15538).
T2 sequence (P15538 whole entry): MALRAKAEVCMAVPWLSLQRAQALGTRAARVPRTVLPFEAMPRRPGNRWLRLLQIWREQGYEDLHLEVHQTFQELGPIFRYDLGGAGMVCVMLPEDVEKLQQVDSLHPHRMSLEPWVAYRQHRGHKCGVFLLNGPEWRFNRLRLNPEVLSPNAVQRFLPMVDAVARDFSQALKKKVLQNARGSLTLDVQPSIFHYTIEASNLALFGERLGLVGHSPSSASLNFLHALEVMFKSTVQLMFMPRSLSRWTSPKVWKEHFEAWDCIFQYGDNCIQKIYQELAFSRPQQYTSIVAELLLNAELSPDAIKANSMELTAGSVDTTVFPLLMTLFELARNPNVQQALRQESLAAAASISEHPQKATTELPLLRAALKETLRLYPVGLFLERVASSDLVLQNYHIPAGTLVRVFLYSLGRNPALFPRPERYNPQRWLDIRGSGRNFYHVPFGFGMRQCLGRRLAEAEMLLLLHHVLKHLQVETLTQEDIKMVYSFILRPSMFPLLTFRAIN

Data set [7] relates to Rattus norvegicus. The data set is described as follows: Reduction of ACTH-induced aldosterone level in Wistar rat plasma at 20 mg/kg, iv administered 16 hrs after ACTH challenge after 0.5 to 3 hrs. On the set-up: scale not given: the % may be the effect or the level left.
A short description of data set [8]: Protein binding in rat plasma at 3 uM after 1 hr. It is filed as ADME, cell-free. The conditions noted are these: read-out: PPB (converted).
Data set [9] in a line: Protein binding in human plasma at 3 uM after 1 hr. The data set is classed as ADME, cell-free. The conditions noted are these: read-out: PPB (converted).
Data set [10] in a line: Terminal half life in Wistar rat at 5 mg/kg, po by cassette dosing. The following applies: in vivo, read-out: beta t1/2 (converted). On the set-up: dose 5 mg/kg, route oral. The data set is classed as ADME, organism-based.
A short description of data set [11]: Tmax in Wistar rat at 5 mg/kg, po by cassette dosing. On the set-up: dose 5 mg/kg, route oral. The data set is classed as ADME, organism-based. The following applies: in vivo.
Data set [12] is described as follows: Cmax in Wistar rat at 5 mg/kg, po by cassette dosing. It is filed as ADME, organism-based. On the set-up: dose 5 mg/kg, route oral. The conditions noted are these: in vivo.
The nature of data set [13]: AUC (0 to infinity) in Wistar rat at 5 mg/kg, po by cassette dosing. On the set-up: time infinity, dose 5 mg/kg, route oral. It is filed as ADME, organism-based. The following applies: plasma.
The next data set deals with U-937. The data set is described as follows: Cytotoxicity against human U937 cells assessed as reduction of survival fraction at >100 uM by fluorimetric alamar blue assay. The data set is classed as cell-based.

As for `O=C1CCc2cc(-c3cncc4ccccc34)ccc2N1`, the IC50 on Cytochrome P450 2B6 was below 100 µM; in data set [6], 0.033 µM. Moreover, the half-life in [1] was 2.9 h. Moreover, the Tmax in data set [2] stood at 2 h. The compound also yielded a Cmax in data set [3] of 134 ng/mL. The compound also returned an AUC(0-inf) in data set [4] of 1660 ng·h/mL. Besides, the Cp in the data set with Rattus norvegicus [5] worked out at 90 ng/mL. Moreover, the Activity with Rattus norvegicus [7] worked out at 36%.
Take `O=C1CCc2cc(-c3cccnc3)ccc2C1`: the IC50 at Cytochrome P450 2B6 is below 50 µM; in data set [6], 3.96 µM. Moreover, the fraction unbound at 1 h, 3 µM in [8] was 0.75; in data set [9] it was 0.76. For the same compound, in data set [10], the half-life was 3.5 h. For the same compound, the Tmax in data set [11] is 4 h. In data set [12], this compound came in with a peak concentration (Cmax) of 104 ng/mL. The compound further came in with an area under the curve AUC(0-inf) in data set [13] of 727 ng·h/mL. Also, the Activity entry in the data set with U-937 is listed as “Toxic”.
As to `COc1cncc(-c2ccc3c(c2)CCC(=O)C3)c1`, the IC50 is below 50 µM at Cytochrome P450 2B6 and 0.191 µM in data set [6]. In addition, the half-life in [10] was 3.9 h. Moreover, the Tmax in [11] is 4 h. In [12], the peak level (Cmax) was 35 ng/mL. This compound gave a total exposure AUC(0-inf) in data set [13] of 212 ng·h/mL.

(Values after ChEMBL document CHEMBL1151717, “In vivo active aldosterone synthase inhibitors with improved selectivity: lead optimization providing a series of pyridine substituted 3,4-dihydro-1H-quinolin-2-one derivatives” (J Med Chem, 2008).)
